One data set has as its system Tagia sp. Conditions: acute; duration: 14 days; mortality.
The subject of a further data set is Colinus virginianus. As to conditions: for LD50: acute, oral, mortality.
For a further data set, the system named is Cyprinus carpio. As to conditions: acute; duration: 96 hours; mortality.
In a further data set the test system is Oryctolagus sp. Conditions: reproduction developmental; reproduction.
A further data set concerns Apis mellifera. As to conditions: acute; duration: 48 hours; oral; unspecified; mortality.
A further data set concerns Anas platyrhynchos. Conditions: for LD50: oral, mortality.
In the next data set the test system is Daphnia magna. As to conditions: chronic/long-term; duration: 21 days; reproduction.
Another data set concerns Oncorhynchus mykiss. Conditions: chronic/long-term; duration: 21 days; behavior.
The next data set deals with Typhlodromus pyri. As to the kind of experiment: LR50; higher = less toxic. Conditions: not reported; mortality.

Each structure is given as a SMILES string. A value given as a limit tells only on which side of the number the result lay.

On to `COc1c(Cl)ccc(Cl)c1C(=O)O` [Dicamba], for which the LC50 is over 1000 mg/kg in the data set on Tagia sp. and over 100 mg/L in the data set on Cyprinus carpio. For the same molecule, the LD50 with Colinus virginianus (diet) was over 995 mg/kg-day; with Colinus virginianus, 216 mg/kg-day; in the data set on Rattus norvegicus (acute, oral, F, mortality), 1580 mg/kg-day; in the data set with Apis mellifera, over 100 µg/piece; in the data set on Anas platyrhynchos (acute, unspecified), 1370 mg/kg-day; in the data set on Anas platyrhynchos (short-term, feed) it was over 1570 mg/kg-day. The results for the NOEL in the data set with Colinus virginianus (reproduction developmental) and in the data set with Anas platyrhynchos (reproductive) were 170 mg/kg-day and 89 mg/kg-day, respectively. The NOAEL with Rattus norvegicus (reproduction developmental, body weight) turned out to be 35 mg/kg-day; in the data set on Oryctolagus sp., 30 mg/kg-day. The NOEC was 97 mg/L in the data set with Daphnia magna and 180 mg/L in the data set with Oncorhynchus mykiss. This molecule also showed an LR50 with Typhlodromus pyri of 233 g/ha.

For the origin of these results see EPA's ToxValDB 9.5 (doi:10.2903/j.efsa.2011.1965).
